Test [1] relates to ischemic volume after tMCAO. Put plainly: Transient middle cerebral artery occlusion (tMCAO) cerebral ischemia model. It counts as in vivo, mice. From the text: For experimental stroke male wild-type C57BL of 2 months have been used. All mice were anesthetized with a gas containing 70 % N2O, 28% O2 e 2% sevoflurane).
Usually, after anesthesia an incision on the ventral neck is made and, under an operating stereo-microscope and with the help of microsurgery twizzers, the muscle is diverted until the common carotid artery (CCA). Then, through smoothly diversion, the CCA is isolated from the vague nerve and the jugulars vein. Analogously, the external carotid artery (ECA) and the internal carotid artery (ICA) are isolated as well.After the isolation of these vessels and the positioning of vascular microclips, a nylon filament (5-0, Ethilon, 11 mm length) is inserted into the internal carotid artery (ICA), at the level of bifurcation with the common carotid artery. The filament is pushed in cranial direction until is reached the bifurcation of the middle cerebral artery (MCA), whose flux is interrupted. After the insertion of the filament the wound is closed with a temporary suture and the mouse is let to awake. After 60 minutes the animal is re-anesthesized and the ischemia is interrupted through the filament rimotion from the vessel. The reduction in cerebral blood flow has been evaluated by means of a cerebral laser-Doppler system (Periflux, Sweden with software Perimed 1.30) that uses a probe fixed on the skull. The body temperature has been maintained constant by means of a homoeothermic blanket connected to a rectal probe. Few minutes after the end of the surgical procedure the mouse awakes and, on the nasis of the pain degree noticed, is decided for the administration of analgesic drugs. Neurounina-1 administration has been done intraperitoneally at different dosages, immediately before, 3 hours or 5 hours the ischemia onset. 24 hours after the surgical procedure, the animal is killed through cervical dislocation and the brain is removed from the skull and analyzed for the determination of the ischemic damage extension. In particular, by means of a vibratome, serial coronal brain sections of […] are obtained. These brain sections are treated with 2,3,5-triphenyl tetrazolium chloride (TTC), an organic compound that has the peculiarity of being oxidized and precipitated as formazan salt only from vital tissue. By contrast, the ischemic tissue, being not able to generate this reaction, remains white. […] The software used (Image Pro-plus 4.1) allows, then, to obtain the brain infarct volume from the value of the infarct areas obtained in close brain slices.Data obtained in this manner are then elaborated to obtain a percentage evaluation of the ischemic damage induced compared to the brain hemisphere […] to the ischemic lesion.

Test [2] deals with rat cortical neurons. Put plainly: Oxygen and glucose deprivation (OGD) followed by reoxygenation. The format is cell-based. Particulars: 10 nM; 3 hours OGD followed by 21 hours of reoxygenation. As for the experimental part:
The effect of neurounina-1 was evaluated on cell viability by using rat primary cortical neurons obtained as follow. Briefly, cortical neurons were prepared from brains of 1-2 day-old new-born rats, anaesthetizes with halothane in a glass chamber and decapitated. Dissection and dissociation were performed in a Ca^2+-Mg^2+-free PBS containing glucose. The brain was removed from the skull and the cerebral cortex was removed. Cerebral cortex was first digested enzymatically and after dispersed mechanically by trituration. Cellular suspension was plated on coverslips previously pre-coated with poly-D-lysine 1mg/ml and cultured in "Neurobasal" medium containing B27 (1:50) and Glutamax)1:100).
The oxygen and glucose deprivation (OGD) was used as a model to reproduce in vitro a condition similar to that observed in vivo when a cerebral vessel was occluded as it occurs in stroke. Briefly, cells were incubated in a medium oxygen and glucose-free and containing: NaCl 116 mM, KCI 5.4 mM, MgSO4 0.8 mM, NaHCO3 26.2 mM, NaH2PO4 1 mM, CaCl2 1.8 mM, glycin 0.01 mM e phenol 0.001 mM (w/v) (Molinaro et al., 2008). This medium was previously saturated with 1 atm of a gas containing 95% N2 and 5% CO2 for 20 minutes. […]

In the case of `O=C1CN=C(c2ccccc2)c2cc([N+](=O)[O-])ccc2N1CN1CCCC1` [neurounina-1, 7-nitro-5-phenyl-1-(pyrrolidin-1-ylmethyl)-1H-benzo[e][1,4]diazepin-2(3H)-one], the ischemic damage result in test [1] (administered just before tMCAO induction, 3 ng/kg, intraperitoneal) is “significantly reduced ischemic damage”. The “minimal dose with neuroprotective effect” value in test [1] (five hours from tMCAO, intraperitoneal) was 0.03 mg/kg. The neuroprotective effect result in test [1] (intraperitoneally 3 hours after tMCAO, dose-range 3 ng/kg to 30 µg/kg) is “still present”. Besides, the ischemic volume result in test [1] (mice, intraperitoneal administration, tMCAO) is recorded as “decreased the ischemic volume”. Further, the “cell death of rat cortical neurons” value in test [2] is “reduced cell death”.

For the origin of these results see patent EP2646421B1, “7-NITRO-5-PHENYL-1-(PYRROLIDIN-1-YLMETHYL)-1H-BENZO[E][1,4]DIAZEPIN-2(3H)-ONE AND OTHER BENZODIAZEPINE DERIVATIVES” (Pignataro, Giuseppe, priority 2010, dated 2012).
